Test results taken from article PMC8609006, “Design of modular autoproteolytic gene switches responsive to anti-coronavirus drug candidates” (Nature Communications, 2021).

Target: T1, SARS-CoV-2 Mpro (Mpro(S2), 3CLpro) (Severe acute respiratory syndrome coronavirus 2, UniProt P0DTD1)
T1 construct: gene rep; mature Mpro (nsp5) cut from polyprotein pp1a/pp1ab, human codon-optimized, fused N-terminally to TetR-MproCSOPT-VP64 (pNF167), expressed in HEK293T; TAGS plasmids OK425851-OK425853 (not assigned singly)
Assay type: cell-based

CC(C)(C)NC(=O)N[C@H](C(=O)N1C[C@H]2[C@@H]([C@H]1C(=O)NC(CC1CCC1)C(=O)C(N)=O)C2(C)C)C(C)(C)C (stereo partly shown) [Boceprevir]
Mpro-TAGS nanoLuc gain-of-signal reporter in HEK293T cells, 24 h: GRL-0496 and Boceprevir only slightly induced gene expression
